Data from patent US11623931B2, “Bicyclic compounds for diagnosis and therapy” (AC IMMUNE SA, priority 2016, dated 2023).
Values belong to the molecule of their own block, whether it stands above or below them.

What was measured:
Set-up in all cases: key: − (No); +/− (very weak); + (weak); ++ (good); +++ (strong)
[1] = biological target: T1, aSyn aggregates on PD sections (Homo sapiens, UniProt P37840); assay: Assay 1 (fluorescence based assay): direct staining of human Parkinson's disease brain sections; assay type: binding; settings: staining intensity; compound 100 μM, frozen amygdala sections, PD Braak stage V-VI
T1 construct: 20 μm frozen sections from amygdala were purchased from an external provider (Tissue Solutions Ltd.); tissue Tissue Solutions Ltd; host or cells: human PD amygdala, frozen sections, Braak stage V-VI
Source text: Assay 1 (Fluorescence Based Assay):
(§1) Direct Staining of Compounds of this Invention to Human Parkinson's Disease Brain Sections
(§2) 20 μm frozen sections from amygdala were purchased from an external provider (Tissue Solutions Ltd.). Donors were diagnosed with PD, Braak stage V-VI (Braak et al., Neurobiol. Aging, 2003, 24, 197-211) and thus with confirmed aSyn pathology. PD donors, Braak stage V-VI with mixed pathology, containing aSyn aggregates as well as Aβ plaques, were also used in this assay. Sections were kept at −80° C. until start of the experiment.
(§3) Brain sections were encircled with pap pen liquid blocker to reduce the volume of solution for the different incubations. Sections were fixed for 15 min at 4° C. with 4% paraformaldehyde and washed three times for 5 minutes with PBS (phosphate buffered saline) at room temperature. Test compounds were incubated on the sections at 100 μM in 50% ethanol in water for 30 min at room temperature, followed by three washes of 5 minutes with PBS. Sections were then saturated and permeabilized in blocking buffer (PBS, 10% NGS, 0.25% Triton) for 1 hour at room temperature and then incubated for 2 hours at room temperature with the primary antibodies against aSyn: aSyn-211 (SantaCruz Biotechnology sc-12767) or aSyn-pS129 (Abcam AB51253), and primary antibody against AR, 4G8, (Covance, SIG-39220). All primary antibodies diluted 1/250 in PBS, 5% NGS, 0.25% Triton. After three washes in PBS, the sections were incubated for 30 minutes at room temperature with a secondary anti-mouse antibody labeled with AlexaFluor555 (Invitrogen A21422) or anti-rabbit antibody labeled with AlexaFluor555 (Invitrogen A21428) and further washed three times in PBS. To reduce auto-fluorescence of the tissue, the sections were incubated in a solution of 0.1% Sudan Black (Sigma 199664) in 70% ethanol for 15 min at room temperature, followed by four washes with PBS and mounted under cover slips using ProLong Gold Antifade reagent (Invitrogen P36930).
(§4) Sections were analyzed on the Nikon Eclipse Ti microscope to detect staining and imaged using Nikon DS-Fi2 camera and NIS-Element AR4.13.1 software.

[2] = tested on: Aβ plaques on PD sections with mixed pathology; assay: Assay 1 (fluorescence based assay): direct staining of PD brain sections with mixed pathology; assay type: binding, human; settings: staining intensity; compound 100 μM, frozen amygdala sections, PD Braak stage V-VI with aSyn aggregates and Aβ plaques
Protocol: as §1, §2, §3, §4

[3] = tested on: Aβ plaques on AD sections; assay: Assay 1 (fluorescence based assay): direct staining of human Alzheimer's disease brain sections; assay type: binding; settings: staining intensity; compound 100 μM, frozen amygdala sections, AD Braak stage V-VI
Protocol: Direct Staining of Compounds of this Invention to Human Alzheimer's Disease Brain Sections 20 μm frozen sections from amygdala were purchased from an external provider (Tissue Solutions Ltd.). Donors were diagnosed with AD, Braak stage V-VI (Braak et al., Neurobiol. Aging, 1995, 16, 271-284) and thus with confirmed Aβ pathology. Sections were kept at −80° C. until start of the experiment. Brain sections were encircled with pap pen liquid blocker to reduce the volume of solution for the different incubations. Sections were fixed for 15 min at 4° C. with 4% paraformaldehyde and washed three times for 5 minutes with PBS at room temperature. Test compounds were incubated on the sections at 100 μM in 50% ethanol in water for 30 min at room temperature, followed by three washes of 5 minutes with PBS. Sections were then saturated and permeabilized in blocking buffer (PBS, 10% NGS, 0.25% Triton) for 1 hour at room temperature and then incubated for 2 hours at room temperature with the primary antibodies against AR, 4G8, (Covance, SIG-39220), diluted 1/250 in PBS, 5% NGS, and 0.25% Triton. After three washes in PBS, the sections were incubated for 30 minutes at room temperature with a secondary anti-mouse antibody labeled with AlexaFluor555 (Invitrogen A21422) and further washed three times in PBS. To reduce auto-fluorescence of the tissue, the sections were incubated in a solution of 0.1% Sudan Black (Sigma 199664) in 70% ethanol for 15 min at room temperature, followed by four washes with PBS and mounted under cover slips using ProLong Gold Antifade reagent (Invitrogen P36930). Sections were analyzed on the Nikon Eclipse Ti microscope to detect staining and imaged using Nikon DS-Fi2 camera and NIS-Element AR4.13.1 software.

SMILES: F[C@@H]1CCCN(c2ccc(-c3nc4ncc(-c5cccnc5)cc4s3)cn2)C1 [Example 100]
Staining of aSyn aggregates on PD sections [1]: ++ | Staining of Aβ plaques on PD sections with mixed pathology [2]: ++

SMILES: F[C@@H]1CCN(c2ccc(-c3nc4nc(-c5cccnc5)ccc4s3)cn2)C1 [Example 90]
Staining of aSyn aggregates on PD sections [1]: ++ | Staining of Aβ plaques on PD sections with mixed pathology [2]: −

SMILES: O=C1COCCN1c1ccc2nc(-c3cnn(CCF)c3)sc2c1 [Example 125]
Staining of aSyn aggregates on PD sections [1]: + | Staining of Aβ plaques on PD sections with mixed pathology [2]: +

SMILES: Fc1nc(N2CCCC2)ccc1-c1ccc2cc(-c3cncnc3)sc2n1 [Example 110]
Staining of aSyn aggregates on PD sections [1]: + | Staining of Aβ plaques on PD sections with mixed pathology [2]: +++

SMILES: CNc1ccc(-c2cc3ccc(-c4ccc(N5CC[C@H](F)C5)nc4)nc3s2)cc1F [Example 113]
Staining of aSyn aggregates on PD sections [1]: + | Staining of Aβ plaques on PD sections with mixed pathology [2]: ++

SMILES: Fc1nc(N2CCCC2)ccc1-c1nc2nc(-c3cnc[nH]3)ccc2s1 [Example 95]
Staining of aSyn aggregates on PD sections [1]: ++ | Staining of Aβ plaques on PD sections with mixed pathology [2]: −

SMILES: O=C1COCCN1c1ccc2nc(-c3ccc(N4CCC[C@H](F)C4)nc3)sc2c1 [Example 127]
Staining of aSyn aggregates on PD sections [1]: ++ | Staining of Aβ plaques on AD sections [3]: +

SMILES: Fc1ccncc1-c1ccc2sc(-c3ccc(N4CCCC4)nc3)nc2c1 [Example 40]
Staining of aSyn aggregates on PD sections [1]: +++ | Staining of Aβ plaques on AD sections [3]: +

SMILES: CNc1ccc(-c2cc3ccc(-c4ccc(OCCF)cc4)nc3s2)cc1 [Example 10]
Staining of aSyn aggregates on PD sections [1]: + | Staining of Aβ plaques on AD sections [3]: +++

SMILES: CNc1ccc(-c2ccc3cc(-c4ccccc4OC)sc3n2)cn1 [Example 7]
Staining of aSyn aggregates on PD sections [1]: ++ | Staining of Aβ plaques on AD sections [3]: +++

SMILES: CN(C)c1ncc(-c2ccc3cc(-c4cccnc4)sc3n2)cn1 [Example 29]
Staining of aSyn aggregates on PD sections [1]: + | Staining of Aβ plaques on AD sections [3]: ++

SMILES: CN1CCN(c2ccc3nc(-c4ccc(N5CCCC5)nc4)sc3c2)C(=O)C1 [Example 69]
Staining of aSyn aggregates on PD sections [1]: ++ | Staining of Aβ plaques on AD sections [3]: +

SMILES: O=C1c2sc(-c3ccc(N4CCCC4)nc3)nc2CCN1c1cccnc1 [Example 80]
Staining of aSyn aggregates on PD sections [1]: +++ | Staining of Aβ plaques on AD sections [3]: ++

SMILES: CNc1ccc(-c2ccc3cc(-c4ccc(OCCF)cc4)sc3n2)cc1 [Example 11]
Staining of aSyn aggregates on PD sections [1]: + | Staining of Aβ plaques on AD sections [3]: ++

SMILES: O=C1COCCN1c1ccc2nc(-c3ccc(N4CC[C@@H](F)C4)nc3)sc2c1 [Example 72]
Staining of aSyn aggregates on PD sections [1]: +++ | Staining of Aβ plaques on AD sections [3]: +

SMILES: CN(C)c1ccc(-c2cc3ccc(-c4ccc(N5CCC(F)CC5)nc4)nc3s2)cn1 [Example 50]
Staining of aSyn aggregates on PD sections [1]: ++ | Staining of Aβ plaques on AD sections [3]: +

SMILES: c1cncc(-c2cc3nc(-c4ccc(N5CCCC5)nc4)sc3cn2)c1 [Example 24]
Staining of aSyn aggregates on PD sections [1]: ++ | Staining of Aβ plaques on AD sections [3]: +

SMILES: Fc1cncc(-c2ccc3sc(-c4ccc(N5CCCC5)nc4)cc3n2)c1 [Example 28]
Staining of aSyn aggregates on PD sections [1]: + | Staining of Aβ plaques on AD sections [3]: +

SMILES: CN(C)c1ccc(-c2cc3ccc(-c4ccc(F)nc4)nc3s2)cn1 [Example 36]
Staining of aSyn aggregates on PD sections [1]: +++ | Staining of Aβ plaques on AD sections [3]: +++

SMILES: Cn1cc(-c2ccc3sc(-c4ccc(N5CC[C@@H](F)C5)nc4)nc3c2)cn1 [Example 52]
Staining of aSyn aggregates on PD sections [1]: + | Staining of Aβ plaques on AD sections [3]: −

SMILES: CNc1ccc(-c2ccc3cc(-c4ccc(OC)c(O)c4)sc3n2)cc1 [Example 30]
Staining of aSyn aggregates on PD sections [1]: ++ | Staining of Aβ plaques on AD sections [3]: ++

SMILES: CNc1ccc(-c2ccc3cc(-c4ccc(C#N)cn4)sc3n2)cn1 [Example 5]
Staining of aSyn aggregates on PD sections [1]: + | Staining of Aβ plaques on AD sections [3]: +

Now from value to molecule, other results behind:

Staining of aSyn aggregates on PD sections [1]: +++
SMILES: c1cncc(-c2cc3ccc(-c4ccc(N5CCOCC5)cc4)nc3s2)c1 [Example 33]
Staining of Aβ plaques on AD sections [3]: +

Staining of aSyn aggregates on PD sections [1]: +
SMILES: c1cncc(-c2ccc3sc(-c4ccc(N5CCCC5)nc4)nc3c2)c1 [Example 39]
Staining of Aβ plaques on AD sections [3]: +

Staining of aSyn aggregates on PD sections [1]: +
SMILES: FCCOc1ccc(-c2cc3ccc(Nc4ccc5c(c4)OCCO5)nc3s2)cc1 [Example 58]
Staining of Aβ plaques on AD sections [3]: ++

Staining of aSyn aggregates on PD sections [1]: +
SMILES: CNc1ccc(-c2cc3ccc(Nc4ccc(OCCF)cc4)nc3s2)cc1 [Example 74]
Staining of Aβ plaques on AD sections [3]: +++

Staining of aSyn aggregates on PD sections [1]: +
SMILES: CNc1ccc(-c2cc3ccc(Nc4ccc(N5CCOCC5)cc4)nc3s2)cc1 [Example 76]
Staining of Aβ plaques on AD sections [3]: +++

Staining of aSyn aggregates on PD sections [1]: ++
SMILES: c1ccc(-c2cc3ccc(-c4ccc(N5CCCC5)nc4)nc3s2)nc1 [Example 21]
Staining of Aβ plaques on AD sections [3]: ++

Staining of aSyn aggregates on PD sections [1]: ++
SMILES: Fc1ncccc1-c1cc2ccc(-c3ccc(N4CCCC4)nc3)nc2s1 [Example 34]
Staining of Aβ plaques on AD sections [3]: +++

Staining of aSyn aggregates on PD sections [1]: +
SMILES: FCCOc1cccc(Nc2ccc3cc(-c4cccnc4)sc3n2)c1 [Example 59]
Staining of Aβ plaques on AD sections [3]: +

Staining of aSyn aggregates on PD sections [1]: ++
SMILES: CNc1ccc(-c2ccc3cc(-c4cccc(OC)c4)sc3n2)cc1 [Example 9]
Staining of Aβ plaques on AD sections [3]: ++

Staining of aSyn aggregates on PD sections [1]: ++
SMILES: COc1cccc(/C=C/c2ccc3cc(-c4cccnc4)sc3n2)c1 [Example 16]
Staining of Aβ plaques on AD sections [3]: ++

Staining of aSyn aggregates on PD sections [1]: ++
SMILES: FCCNc1ccc(-c2ccc3cc(-c4cccnc4)sc3n2)cn1 [Example 56]
Staining of Aβ plaques on AD sections [3]: ++

Staining of aSyn aggregates on PD sections [1]: +
SMILES: c1cncc(-c2cc3ccc(Nc4ccc(N5CCOCC5)cc4)nc3s2)c1 [Example 65]
Staining of Aβ plaques on AD sections [3]: +++

Staining of aSyn aggregates on PD sections [1]: ++
SMILES: CNc1ccc(-c2ccc3cc(-c4cccnc4)sc3n2)cc1 [Example 14]
Staining of Aβ plaques on AD sections [3]: +++

Staining of aSyn aggregates on PD sections [1]: +++
SMILES: COc1ccc(/C=C/c2ccc3cc(-c4cccnc4)sc3n2)cc1 [Example 15]
Staining of Aβ plaques on AD sections [3]: +++
